In test [1] the target is factor Xa, human (Homo sapiens, UniProt P00742). In words: Inhibition of factor Xa (IC50, headed 'Affinity to Receptors'). It is filed as biochemical. The text has this: The inhibition of factor Xa by the compounds according to the invention and the measurement of the anticoagulant and antithrombotic activity can be determined by conventional in-vitro or in-vivo methods. A suitable method is described, for example, by J. Hauptmann et al. in Thrombosis and Haemostasis 1990, 63, 220-223.
Sequence of factor Xa, human (P00742 235-488 limits assumed): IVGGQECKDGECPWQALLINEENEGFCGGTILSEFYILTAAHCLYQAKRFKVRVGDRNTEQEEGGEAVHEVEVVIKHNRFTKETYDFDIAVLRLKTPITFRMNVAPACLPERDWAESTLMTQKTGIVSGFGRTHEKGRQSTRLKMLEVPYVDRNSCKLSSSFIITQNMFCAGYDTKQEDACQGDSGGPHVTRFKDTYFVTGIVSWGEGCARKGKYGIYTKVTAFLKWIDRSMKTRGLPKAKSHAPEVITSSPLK
Sequence of factor Xa, human (P00742 41-179 partner limits assumed): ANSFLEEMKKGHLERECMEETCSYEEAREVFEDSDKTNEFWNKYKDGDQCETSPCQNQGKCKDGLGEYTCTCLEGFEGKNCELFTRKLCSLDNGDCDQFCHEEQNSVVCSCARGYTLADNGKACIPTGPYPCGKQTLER
The inhibition of factor Xa can be measured, for example, by the method of T. Hara et al. in Thromb. Haemostas. 1994, 71, 314-319.

Test [2] concerns the target TF/VIIa (Homo sapiens, UniProt P08709). As to the kind of experiment: Inhibition of TF/VIIa (IC50, headed 'Affinity to Receptors'). Type of test: biochemical. The text has this:
The inhibition of factor VIIa by the compounds according to the invention and the measurement of the anticoagulant and antithrombotic activity can be determined by conventional in-vitro or in-vivo methods. A conventional method for the measurement of the inhibition of factor VIIa is described, for example, by H. F. Ronning et al. in Thrombosis Research 1996, 84, 73-81.

Structures are written as SMILES.

IC50 data for 4 molecules are collected here from patent US20030187037A1, “Acetamide derivatives and the use thereof as inhibitors of coagulation factors xa and viia” (priority 2000, published 2003).

A word on the IC50: it is the concentration that gives 50% inhibition.

Sequence of TF/VIIa (P08709 213-466 limits assumed): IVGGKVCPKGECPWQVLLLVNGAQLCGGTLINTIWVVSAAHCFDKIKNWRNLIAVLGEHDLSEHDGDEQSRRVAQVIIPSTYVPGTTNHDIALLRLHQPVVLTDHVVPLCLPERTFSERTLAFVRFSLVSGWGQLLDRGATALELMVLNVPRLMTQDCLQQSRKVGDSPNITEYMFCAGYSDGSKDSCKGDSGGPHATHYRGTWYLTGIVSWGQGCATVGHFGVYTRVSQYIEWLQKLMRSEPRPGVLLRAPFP
Sequence of TF/VIIa (P08709 61-212 partner limits assumed): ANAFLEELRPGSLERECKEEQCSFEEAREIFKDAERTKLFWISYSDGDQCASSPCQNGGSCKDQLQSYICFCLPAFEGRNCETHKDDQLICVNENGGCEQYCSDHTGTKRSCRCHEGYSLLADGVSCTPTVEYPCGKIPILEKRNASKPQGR
Sequence of TF/VIIa (P13726 33-295 partner): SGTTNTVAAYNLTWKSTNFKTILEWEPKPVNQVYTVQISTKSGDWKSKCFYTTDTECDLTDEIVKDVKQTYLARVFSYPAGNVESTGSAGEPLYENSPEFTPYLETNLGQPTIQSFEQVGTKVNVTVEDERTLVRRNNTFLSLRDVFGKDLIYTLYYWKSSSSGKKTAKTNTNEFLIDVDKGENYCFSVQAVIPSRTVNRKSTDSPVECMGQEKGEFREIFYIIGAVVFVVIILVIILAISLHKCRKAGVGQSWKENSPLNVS

As to `CCCN(Cc1cccc(C(=N)N)c1)C(=O)Cc1ccc(-c2ccccc2S(N)(=O)=O)cc1` [Example 3.3, N-3-amidinobenzyl-N-propyl-2-(2′-sulfamoylbiphenyl-4-yl)acetamide], the figures for the IC50 in test [1] and in test [2] were 2000 nM and 900 nM, respectively.

With `CCCN(Cc1cccc(C(=N)N)c1)C(=O)Cc1ccc(-c2ccccc2S(C)(=O)=O)cc1` [Example 4.3, N-(3-amidinobenzyl)-N-propyl-2-(2′-methylsulfonylbiphenyl-4-yl)acetamide], the IC50 worked out at 1000 nM in test [1] and 700 nM in test [2].

Take `CS(=O)(=O)c1ccccc1-c1ccc(CC(=O)N(Cc2cccc(C(=N)N)c2)c2ccccc2)cc1` [N-(3-amidinobenzyl)-N-phenyl-2-(2′-methylsulfonylbiphenyl-4-yl)acetamide]: the IC50 amounted to 550 nM in test [1] and 650 nM in test [2].

Consider `N=C(N)c1cccc(CN(C(=O)Cc2ccc(-c3ccccc3S(N)(=O)=O)cc2)c2ccccc2)c1` [N-(3-amidinobenzyl)-N-phenyl-2-(2′-sulfamoylbiphenyl-4-yl)acetamide], for which the half-inhibitory concentration (IC50) in test [1] came out at 2000 nM; in test [2], 1500 nM.
